In EP0181129B1, “N6-substituted deoxyribose analogs of adenosines” (WARNER-LAMBERT COMPANY, priority 1984, dated 1986) one finds IC50 data, which are given here for three compounds.

For the test, the target named is T1, adenosine A2 receptor (Rattus norvegicus, UniProt P30543).
T1 construct: Brains were thawed and then kept on ice while the striata were dissected out; tissue Pel-Freez (Rogers, Arkansas); host or cells: rat striatum, membranes
The test can be described thus: Adenosine Receptor Binding - A2 Receptor Affinity (RBA2), [3H]NECA displacement. Particulars: 4 nM [3H]NECA with 50 nM N6-cyclopentyladenosine, rat striatal membranes, 60 minutes at 25°C; read-out: Receptor Binding RBA—2. As for the experimental part: Brains from 200-500 g mixed sex Sprague-Dawley rats were purchased from Pel-Freez (Rogers, Arkansas). Fresh brains from male Long-Evans hooded rats (Blue Spruce Farms, Altamont, NY) gave essentially indentical results. Brains were thawed and then kept on ice while the striata were dissected out. Striata were disrupted in 10 vol of ice-cold 50 mM Tris.HCI (pH 7.7 at 25°C, pH 8.26 at 5°C) (Tris) for 30 seconds in a Polytron PT―10 (Brinkmann) at setting 5. The suspension was centrifuged at 50,000 xg for ten minutes, the supernatant discarded, the pellet resuspended in 10 vol ice-cold Tris as above, recentrifuged, resuspended at 1 g/5 ml, and stored in plastic vials at -70°C (stable for at least six months). When needed, tissue was thawed at room temperature, disrupted in a Polytron, and kept on ice until used.
All incubations were for 60 minutes at 25°C in 12x75 mm glass tubes containing 1 ml Tris with 5 mg original tissue weight of rat weight of rat striatal membranes, 4 nM [^3H]-N-ethyl adenosine-5'-carboxamide ([^3H]NECA), 50 nM N^6-cyclopentyladenosine (to eliminate A1 receptor binding), 10 mM MgCl2, 0.1 units/ml, of adenosine deaminase and 1% dimethylsulfoxide. N^6-Cyclopentyladenosine was dissolved at 10 mM in 0.02 N HCI and diluted in Tris. Stock solutions and dilutions of N^6-cyclopentyladenosine could be stored at -20°C for several months. Test compounds were dissolved at 10 mM in dimethylsulfoxide or the same day as the experiment, and diluted in dimethylsulfoxide to 100x the final incubation concentration. Control incubations received an equal volume (10 µl) of dimethylsulfoxide; the resulting concentration of dimethylsulfoxide had no effect on binding. [^3H]NECA was diluted to 40 nM in Tris. The membrane suspension (5 mg/0.79 ml) contained sufficient MgCl2 and adenosine deaminase to give 10 mM and 0.1 units/ml, respectively, final concentration in the incubation. […] After all additions, the rack of tubes was vortexed, and the tubes were then incubated for 60 min at 25°C in a shaking water bath. The rack of tubes was vortexed an additonal time halfway through the incubation.
Incubations were terminated by filtration through 2.4 cm GF/B filters under reduced pressure. Each tube was filtered as follows: the contents of the tube were poured onto the filter, 4 ml of ice-cold Tris were added to the tube and the contents poured onto the filter, and the filter was washed twice with 4 ml of ice-cold Tris. The filtration was complete in about twelve seconds. Filters were put in scintillation vials, 8 ml of Formula 947 scintillation fluid added, and the vials left overnight, shaken, and counted in a liquid scintillation counter at 40% efficiency.
Nonspecific binding was defined as binding in the presence of […] N^6-cyclopentyladenosine, and specific binding was defined as total binding minus nonspecific binding. The IC50 was calculated by weighted nonlinear least squares curve-fitting to the mass-action equation. [formula] • where Y is cpm bound T is cpm total binding without drug S is cpm specific binding without drug D is the concentration of drug • and K is the IC50 of the drug Weighting factors were calculated under the assumption that the standard deviation was proportional to the predicted value of Y. Nonspecific binding was treated as a very large (infinite) concentration of drug in the computer analysis.

T1 sequence (P30543 whole entry): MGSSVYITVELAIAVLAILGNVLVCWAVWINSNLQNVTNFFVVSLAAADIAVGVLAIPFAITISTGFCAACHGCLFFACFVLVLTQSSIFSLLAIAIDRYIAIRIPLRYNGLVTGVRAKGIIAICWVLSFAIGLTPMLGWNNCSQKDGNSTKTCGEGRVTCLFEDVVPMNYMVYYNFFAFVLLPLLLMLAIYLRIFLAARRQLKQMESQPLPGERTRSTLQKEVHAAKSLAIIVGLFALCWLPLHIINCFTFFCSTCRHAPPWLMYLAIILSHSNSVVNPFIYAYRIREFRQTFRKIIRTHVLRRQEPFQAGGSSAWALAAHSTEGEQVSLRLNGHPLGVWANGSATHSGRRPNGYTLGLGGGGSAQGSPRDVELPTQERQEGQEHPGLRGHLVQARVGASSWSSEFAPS

With `C[C@H]1O[C@@H](n2cnc3c(NC4CCCc5ccccc54)ncnc32)[C@H](O)[C@@H]1O` (stereo partly drawn) [Example 19, N^6-1-Tetralinyl-5' -deoxyadenosine], the IC50 was determined as 71.3 µM.

As to `C[C@H]1O[C@@H](n2cnc3c(NCc4cccc5ccccc45)ncnc32)[C@H](O)[C@@H]1O` [Example 20, N^6-α-Naphthylmethyl-5' -deoxyadenosine], the IC50 came to 0.323 µM.

For the compound `O[C@@H]1[C@H](O)[C@@H](CCl)O[C@H]1n1cnc2c(NC3CCc4ccccc43)ncnc21` (stereo partly drawn) [Example 23, (R)-N^6(1-Indanyl)-5'-deoxy-5'-chloroadenosine], the IC50 worked out at 3.04 µM.
